The assay relates to BDF1 mice, P388 leukemia ip, median survival T/C. The assay is described as follows: NCI In Vivo Anticancer Drug Screen. Data for tumor model P388 Leukemia (intraperitoneal) in B6D2F1 (BDF1) mice. The settings on record: endpoint: median survival time, higher = longer survival. In short, it runs like this:
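Mice carrying the transplantable tumour receive compound or vehicle. Survival is followed in each arm, and the treated measure is divided by the vehicle measure.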

Where [1] appears, read: dose: 25.0 mg/kg/injection, schedule: Q04DX003 (ip), vehicle: saline with Tween-80.
The mark [2] stands for this setting: dose: 50.0 mg/kg/injection, schedule: Q04DX003 (ip), vehicle: saline with Tween-80.
Where [3] appears, read: dose: 100.0 mg/kg/injection, schedule: Q01DX009 (ip), vehicle: saline with Tween-80.
[4] abbreviates: dose: 100.0 mg/kg/injection, schedule: Q01DX009 (ip), vehicle: Klucel (hydroxypropylcellulose) (HPC).
The mark [5] stands for this setting: dose: 100.0 mg/kg/injection, schedule: Q04DX003 (ip), vehicle: Klucel (hydroxypropylcellulose) (HPC).
[6] abbreviates: dose: 200.0 mg/kg/injection, schedule: Q01DX009 (ip), vehicle: Klucel (hydroxypropylcellulose) (HPC).
Where [7] appears, read: dose: 400.0 mg/kg/injection, schedule: Q01DX009 (ip), vehicle: Klucel (hydroxypropylcellulose) (HPC).
[8] abbreviates: dose: 400.0 mg/kg/injection, schedule: Q04DX003 (ip), vehicle: Klucel (hydroxypropylcellulose) (HPC).
Where [9] appears, read: dose: 50.0 mg/kg/injection, schedule: Q01DX009 (ip), vehicle: saline with Tween-80.
[10] abbreviates: dose: 200.0 mg/kg/injection, schedule: Q01DX009 (ip), vehicle: saline with Tween-80.
The mark [11] stands for this setting: dose: 200.0 mg/kg/injection, schedule: Q04DX003 (ip), vehicle: Klucel (hydroxypropylcellulose) (HPC).
Setting [12] is: dose: 100.0 mg/kg/injection, schedule: Q04DX003 (ip), vehicle: saline sonified.
Where [13] appears, read: dose: 200.0 mg/kg/injection, schedule: Q04DX003 (ip), vehicle: saline sonified.
Setting [14] is: dose: 50.0 mg/kg/injection, schedule: Q01DX009 (ip), vehicle: Klucel (hydroxypropylcellulose) (HPC).
[15] abbreviates: dose: 100.0 mg/kg/injection, schedule: Q04DX003 (ip), vehicle: saline.
[16] abbreviates: dose: 400.0 mg/kg/injection, schedule: Q01DX009 (ip), vehicle: saline with Tween-80.

Several values for one entry are separate records, joined by “and”; a condition that tells them apart may be missing. Identical values can stand only once. Toxic doses and inconclusive results are not listed.

With `CC1(C)CC(C(N)=O)C(C)(C)N1O` (configuration not stated), the T/C was 109 % of control (dose: 100.0 mg/kg/injection, schedule: Q01DX001 (ip), vehicle: saline); 86 % of control (dose: 200.0 mg/kg/injection, schedule: Q01DX001 (ip), vehicle: saline); 100 % of control (dose: 400.0 mg/kg/injection, schedule: Q01DX001 (ip), vehicle: saline).

Turning to `CC1([CH2][Hg][Cl])Cc2ccccc2O1` (configuration not stated), the T/C is 92 % of control (dose: 1.56 mg/kg/injection, schedule: Q04DX003 (ip), vehicle: saline with Tween-80) and 88 % of control (dose: 3.13 mg/kg/injection, schedule: Q04DX003 (ip), vehicle: saline with Tween-80).

Take `COc1ccc2c(c1)CC(=CO)CC2=O.COc1ccc2c(c1)CC/C(=C/O)C2=O.[Cu]`: the T/C under setting [1] was 100 % of control; the T/C under setting [2] was 110 % of control; the T/C (dose: 100.0 mg/kg/injection, schedule: Q04DX003 (ip), vehicle: saline with Tween-80) is 90 % of control.

With `O=S(=O)(Sc1ccc(N(CCCl)CCCl)cc1)c1ccc(N(CCCl)CCCl)cc1`, the T/C runs as follows: under setting [3], 122 % of control; (dose: 132.0 mg/kg/injection, schedule: Q01DX009 (ip), vehicle: saline with Tween-80) 110 % of control.

As to `Clc1cccc(Cl)c1Br`, the T/C (dose: 50.0 mg/kg/injection, schedule: Q04DX003 (ip), vehicle: gum acacia) is 95 % of control; the T/C under setting [4] is 100 % of control; the T/C under setting [5] is 88 % of control; the T/C (dose: 100.0 mg/kg/injection, schedule: Q04DX003 (ip), vehicle: gum acacia) is 108 % of control; the T/C under setting [6] is 109 % of control; the T/C (dose: 200.0 mg/kg/injection, schedule: Q04DX003 (ip), vehicle: gum acacia) is 100 % of control. For the same molecule, the T/C under setting [7] is 90 % of control and the T/C under setting [8] is 115 % of control.

As to `CC1(C)COP(OCC(F)(F)F)OC1`, the T/C (dose: 25.0 mg/kg/injection, schedule: Q01DX005 (ip), vehicle: saline with Tween-80) is 92 % of control; the T/C (dose: 50.0 mg/kg/injection, schedule: Q01DX005 (ip), vehicle: saline with Tween-80) was 94 % of control; the T/C (dose: 100.0 mg/kg/injection, schedule: Q01DX005 (ip), vehicle: saline with Tween-80) was 94 % of control.

As for `CC1CN1P(=O)(N1CC2CCC(CC2)C1)N1CC1C` (configuration not stated), the T/C reads like this: (dose: 14.0 mg/kg/injection, schedule: Q01DX009 (ip), vehicle: saline with Tween-80) 113 % of control; (dose: 21.0 mg/kg/injection, schedule: Q01DX009 (ip), vehicle: saline with Tween-80) 122 % of control; (dose: 33.0 mg/kg/injection, schedule: Q01DX009 (ip), vehicle: saline with Tween-80) 159 % of control; under setting [9], 154 % of control; under setting [3], 86 % of control.

For `CC1(C)OC1[Si](C)(C)C` (configuration not stated), the T/C runs as follows: under setting [9], 107 % of control; under setting [3], 121 % of control; under setting [10], 111 % of control.

Turning to `CCOC(=O)C(C)C(O)(c1ccccc1)c1ccccc1` (configuration not stated), the T/C runs as follows: under setting [5], 100 % of control; under setting [11], 104 % of control; under setting [8], 104 % of control.

With `O=c1[nH]cnc2sc3c(c12)CCCC3`, the T/C runs as follows: under setting [12], 95 % of control; under setting [13], 100 % of control; (dose: 400.0 mg/kg/injection, schedule: Q04DX003 (ip), vehicle: saline sonified) 100 % of control.

For `COc1cccc2c1CCCC2=O`, the T/C under setting [14] is 96 % of control, the T/C under setting [4] was 104 % of control and the T/C under setting [6] was 104 % of control.

Take `O=C(Nc1ccc([N+](=O)[O-])cc1)OCC#CC#CCOC(=O)Nc1ccc([N+](=O)[O-])cc1`: the T/C under setting [14] was 100 % of control and the T/C under setting [4] is 100 % of control.

On to `O=Cc1c[nH]c2nccnc12`, for which the T/C is 98 % of control (dose: 25.0 mg/kg/injection, schedule: Q01DX009 (ip), vehicle: saline); 101 % of control (dose: 50.0 mg/kg/injection, schedule: Q01DX009 (ip), vehicle: saline); 99 % of control and 115 % of control (dose: 100.0 mg/kg/injection, schedule: Q01DX009 (ip), vehicle: saline); 100 % of control under setting [15]; 107 % of control and 108 % of control (dose: 200.0 mg/kg/injection, schedule: Q01DX009 (ip), vehicle: saline); 101 % of control (dose: 200.0 mg/kg/injection, schedule: Q04DX003 (ip), vehicle: saline). In addition, the T/C (dose: 400.0 mg/kg/injection, schedule: Q04DX003 (ip), vehicle: saline) is 103 % of control.

Consider `OC1CC[N-]CC1.OC1CC[N-]CC1.[Cl][Pt+2]([Cl])([Cl])[Cl]`, for which the T/C is, setting by setting: under setting [1], 109 % of control; under setting [2], 102 % of control.

In the case of `CC1=C(N2CCN(c3ccc(Cl)cc3)CC2)C(=O)CC(C)(C)C1`, the T/C is, setting by setting: under setting [4], 110 % of control; under setting [6], 105 % of control; under setting [7], 100 % of control.

`CCC[CH2][Sn]1([CH2]CCC)[O]OC(C)(CC)[O]1` (configuration not stated): the T/C (dose: 0.69 mg/kg/injection, schedule: Q01DX009 (ip), vehicle: saline with Tween-80) is 108 % of control; the T/C (dose: 1.04 mg/kg/injection, schedule: Q01DX009 (ip), vehicle: saline with Tween-80) was 104 % of control; the T/C (dose: 1.56 mg/kg/injection, schedule: Q01DX009 (ip), vehicle: saline with Tween-80) was 120 % of control; the T/C (dose: 2.35 mg/kg/injection, schedule: Q01DX009 (ip), vehicle: saline with Tween-80) was 104 % of control.

`COc1ccc(Cl)cc1NC(=O)c1ccccc1C(=O)O`: the T/C is 91 % of control under setting [5], 87 % of control under setting [11] and 87 % of control under setting [8].

For the molecule `O=COc1ccc([N+](=O)[O-])cc1`, the T/C was 95 % of control (dose: 25.0 mg/kg/injection, schedule: Q04DX003 (ip), vehicle: saline); 100 % of control (dose: 50.0 mg/kg/injection, schedule: Q04DX003 (ip), vehicle: saline); 100 % of control under setting [15].

As to `CC(=O)OCc1c(COC(C)=O)c(-c2ccc(Cl)cc2)n2c1CCC2`, the T/C reads like this: (dose: 12.5 mg/kg/injection, schedule: Q01DX009 (ip), vehicle: Klucel (hydroxypropylcellulose) (HPC)) 119 % of control; (dose: 25.0 mg/kg/injection, schedule: Q01DX009 (ip), vehicle: Klucel (hydroxypropylcellulose) (HPC)) 123 % of control; under setting [14], 98 % of control.

As for `O=C1C=Cc2cccc3cccc1c23`, the T/C was 95 % of control (dose: 50.0 mg/kg/injection, schedule: Q04DX003 (ip), vehicle: saline sonified); 95 % of control under setting [12]; 91 % of control under setting [13].

As to `NC(CC(=O)O)c1nn[nH]n1` (configuration not stated), the T/C reads like this: under setting [3], 95 % of control; under setting [10], 95 % of control; under setting [16], 100 % of control.

As to `COc1ccc(C(O)c2ccccc2C(=O)Nc2ccccc2)cc1` (configuration not stated), the T/C reads like this: under setting [3], 90 % of control; under setting [10], 100 % of control.

For `CC1(C)C2CC3C(=CCCC3C#N)C1C2` (configuration not stated), the T/C is 100 % of control under setting [5], 100 % of control under setting [11] and 100 % of control under setting [8].

As to `c1cc2c3c(cccc3c1)N1C(=N2)Sc2nc3ccccc3nc21`, the T/C is 89 % of control under setting [9], 89 % of control under setting [3] and 95 % of control under setting [10].

With `ClC1=C(Cl)C2(Cl)C(Br)C(Br)C1(Cl)C2(Cl)Cl` (configuration not stated), the T/C runs as follows: (dose: 25.0 mg/kg/injection, schedule: Q04DX003 (ip), vehicle: other) 118 % of control; (dose: 50.0 mg/kg/injection, schedule: Q04DX003 (ip), vehicle: other) 109 % of control; under setting [3], 90 % of control; (dose: 100.0 mg/kg/injection, schedule: Q04DX003 (ip), vehicle: other) 100 % of control and 104 % of control; under setting [10], 100 % of control; under setting [11], 90 % of control. Further, the T/C under setting [16] is 110 % of control and the T/C (dose: 400.0 mg/kg/injection, schedule: Q04DX003 (ip), vehicle: other) was 100 % of control.
